Consider eleven compounds from ChEMBL document CHEMBL1201862, “PubChem BioAssay data set” (2004).

Common to all, as to test: inhibition of tumour cell growth, NCI panel, 48 h
The test system of test [1] is OVCAR-5.
Test [2] deals with BT-549.
Test [3] concerns PC-3.
The subject of test [4] is DU-145.
Test [5] relates to MCF7.
Test [6] concerns COLO 205.
Test [7] deals with UACC-257.
For test [8], the system named is MDA-N.
Test [9] relates to SK-MEL-5.
The test system of test [10] is 786-0.
Test [11] deals with MOLT-4.
Test [12] concerns CAKI-1.
Test [13] concerns HL-60.
The subject of test [14] is UACC-62.
The test system of test [15] is Malme-3M.
In test [16] the test system is SF-268.
Test [17] relates to KM12.
Test [18] concerns HCC 2998.
Test [19] concerns SNB-75.

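Tested at 5 concentrations; 48 h exposure; 96-well plates; endpoints linearly interpolated, else capped at highest concentration. GI50 is the concentration that inhibits growth by half.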 The source made the active and inactive calls. No stated cut-off is given here; in the data, active = GI50 up to about 1.1 µM and inactive = higher.

For the compound `OCCNCCN1CCN(CCCN2c3ccccc3Sc3ccc(C(F)(F)F)cc32)CC1`, the GI50 in test [1] was 25.5 µM (inactive); in test [2], 85.9 µM (inactive); in [3] it was 32 µM (inactive); in test [4] it was 50.6 µM (inactive); in test [5] it was 23.6 µM (inactive); in [6], 18.2 µM (inactive). Further, the GI50 was 20.3 µM (inactive) in test [7]; 19 µM (inactive) in test [8]; > 100 µM (inactive) in test [9]; 17.3 µM (inactive) in test [10]; > 100 µM (inactive) in test [11]; 76.2 µM (inactive) in test [12]. In addition, the GI50 in test [13] was > 100 µM (inactive); in [14], 22.3 µM (inactive); in [15], 29.5 µM (inactive); in test [16], 24.5 µM (inactive); in test [17] it was 27.2 µM (inactive); in [18], 27.4 µM (inactive).
`O=C1Oc2ccccc2C(=O)/C1=C\NC(=S)c1ccncc1`: the GI50 in [1] was > 100 µM (inactive); in test [2] it was 31.6 µM (inactive); in [3] it was 94.4 µM (inactive); in test [4], > 100 µM (inactive); in test [5], > 100 µM (inactive); in [6], > 100 µM (inactive). The GI50 is > 100 µM (inactive) in test [7]; > 100 µM (inactive) in test [8]; > 100 µM (inactive) in [9]; > 100 µM (inactive) in test [10]; 95.1 µM (inactive) in test [11]; 51.3 µM (inactive) in [12]. The GI50 is 99.3 µM (inactive) in test [19]; 3.35 µM (inactive) in test [13]; > 100 µM (inactive) in [14]; > 100 µM (inactive) in test [17]; > 100 µM (inactive) in test [18].
In the case of `COc1ccc(C2CC(c3c(O)ccc4ccccc34)=NN2c2ccc([N+](=O)[O-])cc2[N+](=O)[O-])cc1OC` (centres undefined), the GI50 in test [1] was 24.3 µM (inactive); in test [2], 30 µM (inactive); in test [3], 11.5 µM (inactive); in [4], 30.3 µM (inactive); in test [5] it was 17.9 µM (inactive); in test [6], 22.3 µM (inactive). Besides, the GI50 was 22.4 µM (inactive) in test [7]; 28.9 µM (inactive) in [8]; 10.1 µM (inactive) in test [9]; 29 µM (inactive) in [10]; 4.78 µM (inactive) in test [11]; 16.9 µM (inactive) in test [12]. The GI50 is 20.7 µM (inactive) in [19]; 15.3 µM (inactive) in [14]; 17.4 µM (inactive) in test [15]; 25.4 µM (inactive) in test [16]; 13.2 µM (inactive) in test [17]; 28.5 µM (inactive) in test [18].
Take `COc1ccc(/C=C2\NC(=S)N(/C=C3\C(=O)Oc4ccccc4C3=O)C2=O)cc1OC`: the GI50 in test [1], in test [2], in test [3], in test [4], in [5] and in test [6] was > 100 µM (inactive) in each case. Besides, the GI50 in test [7], in [8], in test [9], in test [10], in [11] and in test [12] was > 100 µM (inactive) in each case. Moreover, the GI50 in test [19] was 32.4 µM (inactive); in [13], 22.4 µM (inactive); in test [14], > 100 µM (inactive); in [16] it was > 100 µM (inactive); in test [17], 90.2 µM (inactive); in test [18], > 100 µM (inactive).
Consider `COC(=O)/C=C\COCC1C2CCC(=O)C21` (centres undefined), for which the GI50 was > 25 µM (inactive) in [1]; 11 µM (inactive) in test [2]; > 25 µM (inactive) in test [3]; > 25 µM (inactive) in test [4]; 10.3 µM (inactive) in test [5]; 14 µM (inactive) in test [6]. Besides, the GI50 was 10.4 µM (inactive) in [7]; > 25 µM (inactive) in test [8]; 22.9 µM (inactive) in [9]; 11.5 µM (inactive) in [10]; 6.07 µM (inactive) in test [11]; 0.632 µM (active) in [12]. In addition, the GI50 in [19] is > 25 µM (inactive); in test [14], 16.4 µM (inactive); in test [15], 4.67 µM (inactive); in test [16], 4.68 µM (inactive); in test [17] it was 17.9 µM (inactive); in test [18] it was > 25 µM (inactive).
`N#CNC(=N)Nc1ccc(Cl)cc1`: the GI50 in test [1], in test [2], in test [3], in test [4], in test [5] and in test [6] was > 100 µM (inactive) throughout. Also, the GI50 in test [7] was > 100 µM (inactive); in test [8], > 100 µM (inactive); in [9], > 100 µM (inactive); in test [10] it was > 100 µM (inactive); in [11], 36.4 µM (inactive); in test [12], > 100 µM (inactive). Besides, the GI50 in test [19], in test [14], in test [15], in [16], in [17] and in test [18] was > 100 µM (inactive) throughout.
As to `CCNC1CC(C(C)(C)NCC)CC=C1C` (centres undefined), the GI50 in test [1], in test [2], in [3], in test [4], in test [5] and in [6] was > 100 µM (inactive) each time. Further, the GI50 in test [7], in test [8], in [9], in test [10], in test [11] and in test [19] was > 100 µM (inactive) in each case. Besides, the GI50 in test [13], in [14], in test [16], in test [17] and in test [18] was > 100 µM (inactive) each time.
In the case of `CCOc1cc(C2SCC(=O)N2c2ccc3c(c2)Oc2c(Cl)c4c(c(Cl)c2=N3)Oc2cc(N3C(=O)CSC3c3ccc(O)c(OCC)c3)ccc2N=4)ccc1O` (centres undefined), the GI50 is > 100 µM (inactive) in [1]; 21.7 µM (inactive) in [2]; 48.6 µM (inactive) in test [3]; 29.9 µM (inactive) in test [4]; 33.3 µM (inactive) in test [5]; 80.9 µM (inactive) in [7]. Further, the GI50 in [8] was 34.8 µM (inactive); in test [9], 45.8 µM (inactive); in test [10], 30.1 µM (inactive); in test [11] it was 2.25 µM (inactive); in test [12], > 100 µM (inactive); in test [19], 21.4 µM (inactive). Besides, the GI50 was 1.68 µM (inactive) in test [13], 21.4 µM (inactive) in test [16], 40.9 µM (inactive) in test [17] and 21.9 µM (inactive) in [18].
Consider `CCc1nc2c(n1CC)C(=O)c1ccccc1C2=O`, for which the GI50 is 47.2 µM (inactive) in [1]; 17.2 µM (inactive) in test [2]; 18.8 µM (inactive) in test [3]; 66.5 µM (inactive) in [4]; 49.1 µM (inactive) in test [5]; 16.8 µM (inactive) in [6]. Moreover, the GI50 was 25.4 µM (inactive) in test [7]; > 10 µM (inactive) in test [8]; > 10 µM (inactive) in test [9]; > 100 µM (inactive) in test [10]; 33.9 µM (inactive) in [11]; 20.7 µM (inactive) in [19]. The GI50 in test [13] is 32.7 µM (inactive); in test [14], 28.8 µM (inactive); in [15], 15.5 µM (inactive); in test [16], 69 µM (inactive); in test [17], 45.3 µM (inactive); in [18], 42.1 µM (inactive).
In the case of `CCOC(=O)c1cn2c(n1)sc1cc(Cl)cc(Cl)c12`, the GI50 in test [1], in test [2], in test [3], in [4], in test [5] and in [6] was > 100 µM (inactive) each time. Further, the GI50 in [7], in test [8], in [9], in test [10], in test [11] and in test [12] was > 100 µM (inactive) throughout. Also, the GI50 in test [19], in test [14], in test [15], in [16], in test [17] and in [18] was > 100 µM (inactive) throughout.
Turning to `Cc1cc2nnn(C3CCCO3)c2cc1C` (centres undefined), the GI50 in test [1], in test [2], in [3], in test [4], in test [5] and in test [6] was > 100 µM (inactive) throughout. Further, the GI50 in [7], in test [8], in [9], in test [10], in [11] and in test [12] was > 100 µM (inactive) each time. Further, the GI50 in test [19] is 31.8 µM (inactive); in [13], > 100 µM (inactive); in [14], > 100 µM (inactive); in test [15] it was > 100 µM (inactive); in test [16] it was > 100 µM (inactive); in test [18], > 100 µM (inactive).
